This is an account of results in article PMC6030159 (Scientific Reports, 2018).

Assay [1] deals with HOmyc3 (MYC reconstituted HO15.19) Rat1 fibroblasts. The assay is described as follows: WST-1 growth assay, HOmyc3 (MYC reconstituted) Rat1 fibroblasts. Format: cell-based, rat. On the procedure:
(§1) Cell proliferation assays. Cell growth and viability was estimated in triplicates with WST-1
(§2) (Roche) or Resazurin sodium salt (Sigma-Aldrich) assays in medium at 37°C and 5% CO 2 for
(§3) 2 hours after which absorbance or fluorescence, respectively, was measured with an Omega
(§4) Fluostar (BMG Labtech) in a 96 well plate format. […]
(§5) 0.7% agarose. […]
(In general: Formazan colour is commonly taken as a measure of viable cells.)

In assay [2] the test system is Burkitt's lymphoma cell lines Mutu, Daudi and ST486. The assay is described as follows: Growth of Burkitt's lymphoma cell lines. The assay is classed as cell-based. On the procedure:
Cell proliferation assays. Cell growth and viability was estimated in triplicates with WST-1 (Roche) or Resazurin sodium salt (Sigma-Aldrich) assays in medium at 37°C and 5% CO 2 for 2 hours after which absorbance or fluorescence, respectively, was measured with an Omega Fluostar (BMG Labtech) in a 96 well plate format. Cell counting was done in 96 well plates with CellTracker Green (ThermoFisher) for 30 min in the incubator, after which DAPI was added for 5 min. Images were taken in the green (FITC) and blue (DAPI) channels using a fluorescence microscope (ImageXpress Micro, Molecular Devices). […]
as §5

For assay [3], the system named is hTERT. Further details: method as in PMID 23173022. The settings on record: found artificial, unspecific DNA binding; cited from earlier work.
For assay [4], the system named is TGR-1 (wt) Rat1 fibroblasts. The assay is described as follows: WST-1 growth assay, TGR-1 (wt) Rat1 fibroblasts. Format: cell-based, rat. On the procedure:
as §1, §2, §3, §4, §5

For assay [5], the system named is T1, endogenous MYC:MAX.
T1 construct: endogenous in cells; host or cells: MDA-MB231
The assay is described as follows: Coimmunoprecipitation of MAX with MYC, MDA-MB231 cells. The settings on record: 5 μM, 3 hours post treatment. The assay is classed as cell-based. On the procedure:
These assays were performed essentially as described in[67],[68]. For further information on immunohistochemistry, and on primers and antibodies, see Supplementary Information.

In assay [6] the test system is MAX:MAX. The assay is described as follows: MST MAX:MAX. Format: binding. The settings on record: labeled MAX pre-mixed with 1 µM unlabeled MAX.
Assay [7] deals with T2, bovine serum albumin (BSA).
T2 construct: purchased NanoTemper (included in the MST kit)
Nature of the assay: MST binding to BSA. The settings on record: BSA titrated.
Text: Data are shown as mean ± standard deviation of 5 biological repeats.

The test system of assay [8] is T3, MYCN:MAX interaction.
T3 construct: endogenous in cells; host or cells: SK-N-BE(2)
The assay is described as follows: isPLA endogenous MYCN:MAX in SK-N-BE(2) cells. Format: cell-based. To be noted: 2.5 μM, 16 hours. The protocol:
The isPLA assay has been described. Antibodies used are listed in Supplementary Information. Briefly, cells were grown on collagen-coated chamber slides (Falcon), and treated with 1–10 μM of compounds, respectively, for 16 hours, then washed twice with PBS and fixed in ice cold methanol for 5–15 min at room temperature. Slides were washed in PBS with 0.05% Tween 20 and incubated in blocking buffer after which isPLA was performed using the Duolink® in situ PLA kit (Sigma-Aldrich) according to the manufacturer’s protocol. DNA was stained with DAPI. Incubation with primary antibodies were performed at +4 °C overnight. Images were taken using an Axiovert 200M inverted microscope (Zeiss) and fluorescent dots were quantified using semi-automated analysis in ImageJ (http://imagej.net) and averaged to number of dots per cell.

Assay [9] has as its target MXD1 (MAD1) bHLHZip (Homo sapiens, UniProt Q05195). The assay is described as follows: SPR binding to MXD1 (MAD1). The protocol:
(§6) The MYC SPR assay was carried out as described above with MYCbHLHZip immobilized to a level of 800–1000 RU. For kinetic binding experiments, a Langmuir 1:1 binding event was applied using the Biacore T200 Evaluation Software 2.0 (GE Healthcare) to determine association (ka) and dissociation (kd) constants of the compound and to calculate affinity (KD) by the formula; KD = kd/ka. Binding responses from equilibrium binding experiments were plotted against compound concentration and KD values were determined at 50% of the theoretical Rmax with the formula Rmax = (MW analyte/MW ligand) × immobilized ligand level on the chip (RU) × stoichiometry (1:1). Same coupling method described above was used to immobilize the control proteins. MAX was immobilized to approximately 2000 RU, MAD to 600 RU, BSA to 1000 RU, p53 to 3000 RU and BCL-XL, to 500 RU.

In assay [10] the test system is T4, BSA.
T4 construct: purchased NanoTemper (included in the MST kit)
Nature of the assay: SPR binding to BSA. Further details: species or system bovine. On the procedure:
as §6
A general note: Surface plasmon resonance follows binding to a sensor surface in real time, without labels.

Assay [11] relates to T5, MYCN:MAX interaction.
T5 construct: from tissue; host or cells: SK-N-DZ xenograft tumour grown in athymic nude mice
Nature of the assay: isPLA MYCN:MAX on xenograft tumor tissue. The assay is classed as in vivo, mouse. The settings on record: 20 mg/kg i.p. daily, 1–2 weeks, vs vehicle. On the procedure:
isPLA for tumor tissue was performed using 4% formaldehyde fixed paraffin embedded material. The tissue slides were deparaffinized at 65 °C for an hour, rehydrated in 1X Aqua De Par (Biocare Medical) and incubated at 80 °C for 10 min in a pressure chamber (Decloaking Chamber™ Biocare Medical). Slides were soaked in antigen retrieval buffer (10 mM sodium citrate, pH 6.0) and heated in the pressure chamber to 100 °C for 20 minutes, after which the temperature was lowered to 65 °C. Slides were removed from the chamber and cooled down to room temperature. The antigen retrieval buffer was replaced gradually by deionized H2O for 15 min. Slides were placed in blocking buffer (Duolink® isPLA kit) for 1.5 hours at 37 °C followed by an extra blocking step using the Mouse on Mouse (M.O.M.™) basic kit (Vector Laboratories) according to manufacturers’ protocol. isPLA was performed as above.
The last dose was administered 3 hrs before termination.

For assay [12], the system named is T6, BCL-XL.
T6 construct: purchased Abcam
Nature of the assay: SPR binding to BCL-XL. The protocol: as §6

Assay [13] addresses MAX bHLHZip (Homo sapiens, UniProt P61244). Nature of the assay: MST direct binding to MAX. To be noted: 3 μM MYCMI-6, MAX titrated. On the procedure:
To determine whether MYCMI-6 binds directly to MYC (or MAX), MST and SPR were applied. The bHLHZip domains of MYC or MAX, respectively (Suppl. Fig. S1C), were titrated and mixed with 3 μM of MYCMI-6.
MST was carried out on a Monolith NT.115 with blue/green filters, kindly provided by Luca Jovine, Karolinska Institutet Huddinge, according to manufacturer’s protocol (NanoTemper). MYCbHLHZip, MAXbHLHZip, BSA and BCL-XL recombinant proteins and compounds were diluted and titrated in PBS supplemented with 0.05% Triton-X-114 or 0.05% Tween-20. Titration of molecules was carried out in 16 PCR tubes into which a fixed concentration of fluorescent molecule was added. The mixture was applied to capillaries (standard treated, NanoTemper), and scanned in the Monolith NT.115 to measure initial fluorescence of molecule. MST was induced and fluorescence was measured during 40 seconds. Double measurements were carried out (MST power of 20% and 40%, or 40% and 60%) for each sample. Delta fluorescence or relative fluorescence of fluorescent molecule normalized to control vehicle was plotted against titrated molecule concentration. The protein labeling kit GREEN-NHS (NanoTemper) was used to label primary amines of proteins according to manufacture’s protocol.

Each structure is given as a SMILES string. Entries after “also recorded” stand apart in the source; their conditions may differ.

MAX bHLHZip, sequence (P61244 23-102 limits assumed): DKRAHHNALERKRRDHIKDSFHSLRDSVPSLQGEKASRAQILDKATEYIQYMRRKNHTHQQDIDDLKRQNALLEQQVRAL
MXD1 (MAD1) bHLHZip, sequence (Q05195 56-137 limits assumed): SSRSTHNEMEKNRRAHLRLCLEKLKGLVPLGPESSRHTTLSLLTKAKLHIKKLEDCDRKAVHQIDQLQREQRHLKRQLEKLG

As a reminder, the GI50 is the concentration that inhibits growth by half. `CCOc1ccc2nc3cc(/N=N/c4ccc(N)nc4N)ccc3c(N)c2c1` [MYCMI-6]: in assay [1], the “growth of MYC reconstituted (HOmyc3) cells” value is “strongly inhibited growth”. Also, in assay [2] (Burkitts lymphoma cell, Mutu, Daudi, ST486, read-out: average GI50, Burkitt's lymphoma cells), the GI50 is 500 nM. Moreover, the “lowest IC50/GI50 of tumor cell growth” value in [2] (neuroblastoma and Burkitt's lymphoma cells with deregulated MYCN/MYC, as low as) is not below 0.5 µM. Besides, the “IC50 for hTERT relative to MYC:MAX in vitro” value in [3] is “approximately 10 fold”. The “growth of wt (TGR-1) cells” value in assay [4] is reported as “strongly inhibited growth”. In assay [5], the “coimmunoprecipitation of endogenous MYC:MAX” value is recorded as “reduced the MYC:MAX protein interaction”. Also, the “effect on MAX:MAX (MST)” value in assay [6] is reported as “minor effects; also recorded: did not inhibit MAX:MAX homodimerization”. In [7], the “binding to BSA (MST)” value is given as “did not bind”. Further, in [8], the “MYCN:MAX interaction (isPLA)” value is “significantly inhibited”. The “binding to MXD1 (MAD1) (SPR)” value in assay [9] is “negligible”. Moreover, the “binding to BSA (SPR)” value in assay [10] is listed as “negligible”. For the same molecule, the “MYCN:MAX interaction in tumors (isPLA)” value in assay [11] is recorded as “significant reduction”. Further, in assay [12], the “fold lower affinity for BCL-XL than for MYC” value is recorded as not below 5 fold. Further, the “binding to BCL-XL, % of the theoretical maximum (SPR)” value in assay [12] (2 μM MYCMI-6) stood at 10%. Besides, the “binding to MAX bHLHZip (MST)” value in assay [13] was “no obvious changes; also recorded: did not bind to MAX”.
